Target: T1, GBA2 (Homo sapiens, UniProt Q9HCG7)
T1 sequence (Q9HCG7 1-927): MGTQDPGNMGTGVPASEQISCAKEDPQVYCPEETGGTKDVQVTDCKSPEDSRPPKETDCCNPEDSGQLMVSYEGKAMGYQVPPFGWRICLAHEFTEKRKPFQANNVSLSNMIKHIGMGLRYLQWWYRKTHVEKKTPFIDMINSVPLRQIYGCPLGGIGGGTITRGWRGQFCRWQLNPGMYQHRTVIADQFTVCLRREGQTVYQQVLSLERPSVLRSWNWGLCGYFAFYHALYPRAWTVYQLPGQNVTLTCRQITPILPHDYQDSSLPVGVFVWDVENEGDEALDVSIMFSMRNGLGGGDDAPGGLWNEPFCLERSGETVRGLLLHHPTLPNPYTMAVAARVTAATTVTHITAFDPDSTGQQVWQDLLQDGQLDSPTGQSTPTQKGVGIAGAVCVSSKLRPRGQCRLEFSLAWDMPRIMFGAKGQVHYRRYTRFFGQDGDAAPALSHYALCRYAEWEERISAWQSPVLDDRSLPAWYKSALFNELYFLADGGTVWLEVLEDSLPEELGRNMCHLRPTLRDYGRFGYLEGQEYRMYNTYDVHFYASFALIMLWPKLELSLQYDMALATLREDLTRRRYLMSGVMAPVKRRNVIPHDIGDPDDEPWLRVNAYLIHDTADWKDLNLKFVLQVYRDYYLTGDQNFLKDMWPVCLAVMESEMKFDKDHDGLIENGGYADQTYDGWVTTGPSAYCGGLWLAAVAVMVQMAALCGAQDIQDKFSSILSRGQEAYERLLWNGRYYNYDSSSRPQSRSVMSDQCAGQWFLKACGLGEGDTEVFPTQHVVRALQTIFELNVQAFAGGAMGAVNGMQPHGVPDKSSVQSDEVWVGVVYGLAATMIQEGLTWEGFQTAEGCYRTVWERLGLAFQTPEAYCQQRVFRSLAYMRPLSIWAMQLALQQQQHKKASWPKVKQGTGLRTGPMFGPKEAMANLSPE
Assay: In situ labelling/inactivation in intact HEK293T cells (endogenous GBA1, GBA2/GBA3 OE)
Assay type: cell-based
Parameters: expressed in transfected cells; host or cells: HEK293T GBA1/GBA2 KO (CRISPR/Cas9), GBA2 overexpressed
Settings: ESI Fig. S8B (24 h incubation)
Protocol: We next sought to investigate whether we could identify and localize active GBA2 molecules in human cells using our β-D-Araf aziridine ABPs. […] The lysates were then denatured, their protein content separated by SDS-PAGE and the resulting wet gel slabs scanned for fluorescence. Following this procedure, we observed that all three β-D-Araf ABPs 3–5 enter intact cells, where they react with GBA2, and given the enzyme lifetime (>24 h), also with newly synthesized GBA2 (Fig. 5A, ESI Fig. S8A and B ^†).
Figure S7. Fluorescent gel images of in situ labelling of intact HEK293T cells (GBA1 endogenous and GBA2/GBA3 OE) by arabinofuranosyl cyclitol configured ABPs 3-5, 14 and 20 after 1 h incubation. GAA = Lysosomal α glucosidase (EC 3.2.1.20, CAZy GH31).
Figure S8. […] Intact HEK293T cells were treated with β-D-Araf ABPs for 24 h at 37 °C with 7% CO2, then cells were collected and lysed for labelling studies with or without residual β-glucosidases activity read out. […]
2.8 β-Glucosidase inactivation visualized by competitive ABPP with SDS-PAGE In general, samples containing GBA1, GBA2 or GBA3 (see the exact constitution of these samples in the described case) are first incubated (in vitro or in situ) with the inactivator compounds, subsequently, the fluorescent readout ABPs were added and incubated with the mixture to reveal the residual active β-glucosidase enzymes. […]

SMILES | Concentration at which GBA2 is inactivated almost completely in intact cells [nM]
CC1=CC(C)=[N+]2C1=C(CCCCc1cn(CCCCCCCCN3[C@@H]4[C@H](CO)[C@@H](O)[C@H](O)[C@@H]43)nn1)c1c(C)cc(C)n1[B-]2(F)F (some centres unmarked) [ABP 3] | 100
COc1ccc(C2=[N+]3C(=C(CCCCc4cn(CCCCCCCCN5[C@@H]6[C@H](CO)[C@@H](O)[C@H](O)[C@@H]65)nn4)c4ccc(-c5ccc(OC)cc5)n4[B-]3(F)F)C=C2)cc1 (some centres unmarked) [ABP 4] | 100
